Values of other authors in US20240226212A1, “GENOMIC SEQUENCES FOR YEAST PROBIOTICS” (Worcester Polytechnic Institute, priority 2023, published 2024).

System: C. albicans

OCCc1c[nH]c2ccccc12 [tryptophol]
filamentation of C. albicans: shown to inhibit filamentation
